Measurements as given in article PMC6032384 (International Journal of Molecular Sciences, 2018).
Read-outs that look alike come from different tables or passages of the source.

Key:
Assay type in all cases: cell-based, human
[1] = tested on: HL-60 cells; assay: Cell morphology (May-Grunwald-Giemsa staining) and light scattering by flow cytometry; settings: 24 and 48 h
[2] = tested on: HL-60 cells
Description: The internucleosomal DNA fragmentation and cell cycle distribution were assessed in HL-60 cells after 24 and 48 h of incubation with the [Ru(PPh3)2(Thy)(bipy)]PF6 complex in a DNA content-based assay using the dye propidium iodide (PI) and flow cytometry (Table 3). All DNA with a subdiploid size (sub-G0/G1) were considered to be fragmented. At concentrations of 1, 2, and 4 μM, the complex led to, respectively, 19.4%, 30.1%, and 36.2% DNA fragmentation after 24 h of incubation and to 12.5%, 26.7%, and 58.2% DNA fragmentation after 48 h of incubation.
(§1) Light scattering features were determined by flow cytometry. The internucleosomal DNA fragmentation and cell cycle distribution were determined according to Nicoletti et al.. For apoptosis measurements, a FITC Annexin V Apoptosis Detection Kit I (BD Biosciences, San Jose, CA, USA) was used, and the analysis was performed, according to the manufacturer’s instructions. A protection assay using the pan-caspase inhibitor Z-VAD(OMe)-FMK (Cayman Chemical, Ann Arbor, MI, USA) was also evaluated. The mitochondrial transmembrane potential was determined by the retention of the dye rhodamine 123 [28]. The levels of ROS were measured, as previously described, using 2′,7′-dichlorofluorescin diacetate (DCF-DA, Sigma-Aldrich Co.). At least 1 × 10^4 events were recorded per sample using a BD LSRFortessa cytometer along with BD FACSDiva Software (BD Biosciences) and Flowjo Software 10 (Flowjo LCC, Ashland, OR, USA). The cellular debris was omitted from the analysis.

[3] = tested on: caspase-3 in HL-60 cells; assay: Caspase-3 colorimetric assay; settings: 48 h
Description: Figure 6 Caspase-3 activity (A), assessed by a colorimetric assay after 48 h of incubation, and mitochondrial membrane potential (B), evaluated by flow cytometry using rhodamine 123 staining after 24 h of incubation, of HL-60 cells treatment with the [Ru(PPh3)2(Thy)(bipy)]PF6 complex (CRT). […] Data are presented as the mean ± S.E.M. of at the least three independent experiments. * p < 0.05 as compared with the negative control by ANOVA, followed by the Student Newman-Keuls test.
The cell lines that were used in this study were obtained from the American Type Culture Collection (ATCC) and were cultured, as described previously. Primary PBMCs were obtained with informed consent (# 031019/2013). All the cells were free of contamination, and the cell viability was determined by the TBE or AB assay, which were performed following the procedure that was described previously. The cell morphology analysis was performed using cytospin and May-Grunwald-Giemsa staining as described previously. To investigate caspase-3 activation, a caspase-3 colorimetric assay kit (Sigma-Aldrich Co.) was used.

[4] = tested on: HL-60 cells; assay: ROS levels (DCF-DA, flow cytometry); settings: 1 or 3 h of incubation, data not shown
Description: The induction of ROS production is also an important mechanism for inducing apoptosis.
as §1

Cc1c[nH]c(=O)[n-]c1=O.F[P-](F)(F)(F)(F)F.[Ru+2].c1ccc(-c2ccccn2)nc1.c1ccc(P(c2ccccc2)c2ccccc2)cc1.c1ccc(P(c2ccccc2)c2ccccc2)cc1 [CRT, [Ru(PPh3)2(Thy)(bipy)]PF6]
Cell morphology ([1]; May-Grunwald-Giemsa-stained cells): cell morphology changes that were associated with apoptosis
Forward light scatter (FSC), cell shrinkage ([1]; flow cytometry): decrease
Side scatter (SCC), nuclear condensation ([1]; flow cytometry): increase
DNA content G0/G1 ([2]; 1 µM, 24 h): 30.5 ± 4.8 %
DNA content G2/M ([2]; 1 µM, 24 h): 18.5 ± 0.7%
DNA content S ([2]; 1 µM, 24 h): 11.5 ± 1.7%
DNA content Sub-G0/G1 (DNA fragmentation) ([2]; 1 µM, 24 h): 19.4 ± 3.9 %
DNA content Sub-G0/G1 (DNA fragmentation) ([2]; 1 µM, 24 h, listed as [Ru(PPh3)2(Thy)(bipy)]PF6 complex): 19.4%
DNA content G0/G1 ([2]; 1 µM, 48 h): 41.2 ± 9.6 %
DNA content G2/M ([2]; 1 µM, 48 h): 10.8 ± 2.5%
DNA content S ([2]; 1 µM, 48 h): 11.2 ± 2.4%
DNA content Sub-G0/G1 (DNA fragmentation) ([2]; 1 µM, 48 h): 12.5 ± 3.5 %
DNA content Sub-G0/G1 (DNA fragmentation) ([2]; 1 µM, 48 h, listed as [Ru(PPh3)2(Thy)(bipy)]PF6 complex): 12.5%
DNA content G0/G1 ([2]; 2 µM, 24 h): 38.7 ± 2.2 %
DNA content G2/M ([2]; 2 µM, 24 h): 17.9 ± 4.4%
DNA content S ([2]; 2 µM, 24 h): 7.8 ± 1.5 %
DNA content Sub-G0/G1 (DNA fragmentation) ([2]; 2 µM, 24 h): 30.1 ± 7.9 %
DNA content Sub-G0/G1 (DNA fragmentation) ([2]; 2 µM, 24 h, listed as [Ru(PPh3)2(Thy)(bipy)]PF6 complex): 30.1%
DNA content G0/G1 ([2]; 2 µM, 48 h): 42.6 ± 4.9 %
DNA content G2/M ([2]; 2 µM, 48 h): 14.4 ± 2.5%
DNA content S ([2]; 2 µM, 48 h): 10.5 ± 0.8 %
DNA content Sub-G0/G1 (DNA fragmentation) ([2]; 2 µM, 48 h): 26.7 ± 7.0 %
DNA content Sub-G0/G1 (DNA fragmentation) ([2]; 2 µM, 48 h, listed as [Ru(PPh3)2(Thy)(bipy)]PF6 complex): 26.7%
DNA content G0/G1 ([2]; 4 µM, 24 h): 36.3 ± 3.1 %
DNA content G2/M ([2]; 4 µM, 24 h): 13.2 ± 4.1%
DNA content S ([2]; 4 µM, 24 h): 10.4 ± 2.4%
DNA content Sub-G0/G1 (DNA fragmentation) ([2]; 4 µM, 24 h): 36.2 ± 9.5 %
DNA content Sub-G0/G1 (DNA fragmentation) ([2]; 4 µM, 24 h, listed as [Ru(PPh3)2(Thy)(bipy)]PF6 complex): 36.2%
DNA content G0/G1 ([2]; 4 µM, 48 h): 28.4 ± 5.9 %
DNA content G2/M ([2]; 4 µM, 48 h): 5.5 ± 2.6 %
DNA content S ([2]; 4 µM, 48 h): 4.4 ± 1.2 %
DNA content Sub-G0/G1 (DNA fragmentation) ([2]; 4 µM, 48 h): 58.2 ± 8.8 %
DNA content Sub-G0/G1 (DNA fragmentation) ([2]; 4 µM, 48 h, listed as [Ru(PPh3)2(Thy)(bipy)]PF6 complex): 58.2%
Caspase-3 activity [3]: induced activation of caspase-3
ROS levels [4]: did not induce a significant increase
